Measured values as given in US20220339187A1, “ANTIMICROBIAL PEPTIDE-SELENIUM NANOPARTICLES” (The University of Melbourne, priority 2019, published 2022).

How the values were obtained:
[1] = system: multidrug-resistant K. pneumoniae (MDR); assay: Bacterial growth inhibition test / MIC calculation; format: cell-based, Klebsiella pneumoniae; conditions: MHB, 37° C., growth curves, linear regression, mean ± s.d.
Description: The bacterial strains methicillin-sensitive Staphylococcus aureus (S. aureus) ATCC 29213, methicillin-resistant Staphylococcus aureus (MRSA) ATCC 43300, Enterococcus faecalis (E. faecalis) ATCC 29212, Escherichia coli (E. coli) ATCC 25922, Acinetobacter baumannii (A. baumannii) 2208 ATCC19606, Pseudomonas aeruginosa (P. aeruginosa) strain PAO1-LAC ATCC 47085, Klebsiella pneumoniae (K. pneumoniae) ATCC 13883 and multidrug-resistant K. pneumoniae (MDR), were obtained from the culture collection of the Oral Health Cooperative Research Centre, The Melbourne Dental School, University of Melbourne, Australia. Bacteria were cultured in Mueller Hinton Broth (MHB) at 37° C. […] The plate was put into an iEMS microplate reader (Pathtech Pty Ltd, Melbourne, Australia) at a temperature of 37° C. to monitor bacterial growth by measuring the absorbance at wavelength of 630 nm for 24 h. Background absorbance values due to the Se NP solutions were subtracted from the measured absorbance values.
The absorbance values from bacteria growth curves at the time when the stationary phase starts (tsps) were taken and calculated as a percentage of the untreated control (Z=OD5/OD6×100%, where OD5 represents absorbance at tsps of experimental groups and OD6 represents the absorbance at tsps of the negative control group; all absorbance values had the culture medium background values subtracted). […]

[2] = system: Gram-negative bacteria; assay: Colony forming unit assay (bactericidal effect); format: cell-based
Procedure: (§1) For the CFU measuring assay, 50 μL of different concentrations of Se NPs, Se NP-ε-PL or pure ε-PL in PBS solution was added into each well of 96-well microplates, then 50 μL MHB with 2.5×10^6 cells/mL bacteria were added into each well. After incubating the microplate at 37° C. for 90 min, the bacterial solutions were diluted 10^−1, 10^−2, 10^−3 and 10^−4 times, then 10 μL of each dilution was transferred onto agar plates with MHB. The agar plates were incubated overnight, before the bacterial colony forming units were observed and measured.

[3] = system: all tested bacterial strains (S. aureus, E. faecalis, E. coli, A. baumannii, P. aeruginosa, K. pneumoniae); assay: Membrane disruption test (PI-positive cells); format: cell-based; conditions: 6.25 or 12.5 μg/ml, 90 min
Procedure: The bacterial strains methicillin-sensitive S. aureus ATCC 29213, E. faecalis ATCC 29212, E. coli ATCC 25922, A. baumannii 2208 ATCC19606, P. aeruginosa strain PAO1-LAC ATCC 47085 and K. pneumoniae ATCC 13883 were cultured in MHB at 37° C. 50 μL of different concentrations of Se NPs, Se NP-ε-PL or pure ε-PL in PBS solution was added into each well of 96-well microplates. 50 μL MHB with 2.5×10^6 cells/mL bacteria was then added into each well. 50 μL MHB with 2.5×10^6 cells/mL bacteria was added to 50 μL PBS to act as untreated control. After 90 min incubation at 37° C., 0.1% of a green-fluorescent nucleic acid stain (SYTO 9, Thermo Fisher Scientific) and 0.1% of propidium iodide (PI) were added to each well and incubated again for 5 min. SYTO 9 can stain both live and dead Gram-positive and Gram-negative bacteria. PI is a red-florescent nuclear and chromosome counterstain but is not permeant to cells with intact plasma membranes. A Cell Lab Quanta SC MPL flow cytometer (Beckman Coulter) was adopted to measure the percent of PI-positive cells. Two independent tests were performed, and two parallel samples were used in each test for each variation.

[4] = system: E. coli ATCC 25922; assay: Membrane potential change test (BacLight, DiOC2(3)); format: cell-based, Escherichia coli; conditions: 6.25 or 12.5 μg/ml (CCCP 5 μM)
Procedure: (§2) Membrane potential change was measured using a BacLight Bacterial Membrane Potential Kit (Invitrogen). The bacterial strain methicillin-sensitive S. aureus (MSSA) ATCC 29213, E. faecalis ATCC 29212, E. coli ATCC 25922 were cultured in MHB at 37° C. 50 μL of different concentrations of Se NPs, Se NP-ε-PL or pure ε-PL in PBS solution was added into each well of 96-well microplates. 50 μL MHB with 2.5×10^6 cells/mL bacteria was then added into each well. 50 μL MHB with 2.5×10^6 cells/mL bacteria was added to 50 μL PBS to act as untreated control. Carbonyl cyanide 3-chlorophenylhydrazone (CCCP) was added to untreated control at a final concentration of 5 μM to act as fully depolarized control. 3,3′-Diethyloxacarbocyanine Iodide (DiOC2(3)) was added to all wells at a final concentration of […]. […] The untreated (polarized) and CCCP-treated (fully depolarized) controls were used to determine the percentage of depolarized cells. Two independent experiments were done for this test, and two technical replicates were adopted for each independent experiment.

[5] = system: methicillin-sensitive S. aureus (MSSA) ATCC 29213; assay: as above; format: cell-based, Staphylococcus aureus; conditions: 6.25 or 12.5 μg/ml
Procedure: as §2

[6] = system: methicillin-sensitive Staphylococcus aureus (S. aureus) ATCC 29213; assay: CFU measuring assay / MBC calculation; format: cell-based; conditions: 90 min at 37° C., linear regression, mean ± s.d.
Procedure: as §1
(§3) Concentration-killing curves were plotted with CFUs/mL as a function of antibacterial agent concentration, and linear regression analysis was used to determine the lowest concentration (MBC) at which the CFU/mL becomes zero.

[7] = system: Enterococcus faecalis (E. faecalis) ATCC 29212; assay: CFU measuring assay / MBC calculation; format: cell-based; conditions: 90 min at 37° C., linear regression, mean ± s.d.
Procedure: as §1, §3

[8] = system: Acinetobacter baumannii (A. baumannii) 2208 ATCC19606; assay: CFU measuring assay / MBC calculation; format: cell-based; conditions: 90 min at 37° C., linear regression, mean ± s.d.
Procedure: as §1, §3

[9] = system: Escherichia coli (E. coli) ATCC 25922; assay: CFU measuring assay / MBC calculation; format: cell-based; conditions: 90 min at 37° C., linear regression, mean ± s.d.
Procedure: as §1, §3

[10] = system: methicillin-resistant Staphylococcus aureus (MRSA) ATCC 43300; assay: CFU measuring assay / MBC calculation; format: cell-based; conditions: 90 min at 37° C., linear regression, mean ± s.d.
Procedure: as §1, §3

[11] = system: Klebsiella pneumoniae (K. pneumoniae) ATCC 13883; assay: CFU measuring assay / MBC calculation; format: cell-based; conditions: 90 min at 37° C., linear regression, mean ± s.d.
Procedure: as §1, §3

[12] = system: Pseudomonas aeruginosa (P. aeruginosa) strain PAO1-LAC ATCC 47085; assay: CFU measuring assay / MBC calculation; format: cell-based; conditions: 90 min at 37° C., linear regression, mean ± s.d.
Procedure: as §1, §3

ε-poly-L-lysine [ε-PL]
MIC [1]: 26.5 ± 0.5 µg/mL | bactericidal effect (CFU) [2]: high bactericidal efficacy | cell membrane disruption (PI positive cells) [3]: membrane disruption effects | depolarisation of cell membrane [4]: depolarized cell membranes | depolarisation of cell membrane [5]: depolarized cell membranes | MBC [6]: 50.6 ± 3.5 µg/mL | MBC [7]: 134 ± 10 µg/mL | MBC [8]: 50.0 ± 0.2 µg/mL | MBC [9]: 24.3 ± 1.2 µg/mL | MBC [10]: 149 ± 37 µg/mL | MBC [11]: 12.9 ± 0.4 µg/mL | MBC [12]: 25.0 ± 0.1 µg/mL
